According to patent publication EP4810052A2, “HCRHR2 SELECTIVE POLYPEPTIDES” (Gubra A/S, priority 2023, dated 2026):
Where two headings read alike, the source gives them in different places. Starred links: 1 amine or outer side, 2 acyl side, 3 side chain; linkers in the order of their positions; H or OH if unused. Non-standard residues stand in square brackets, D forms with d. Residues, ends and D or L forms follow the SMILES beside them. Groups on a side chain read outwards from the residue. *: point of attachment. C20 diacid = O=C(O)CCCCCCCCCCCCCCCCCCC(=O)*; γGlu = O=C(O)[C@H](CCC(=O)[*:2])N[*:1]; NMeI = CC[C@H](C)[C@H](NC)C(=O)O; Nle = CCCC[C@H](N)C(=O)O; AEEA = NCCOCCOCC(=O)O; Aib = CC(C)(N)C(=O)O

Legend:
[1] = biological target: T1, hCRHR2 (Homo sapiens, UniProt Q13324); assay: HTRF cAMP assay, determination of hCRHR2 potency (peptide libraries 5 conc., purified peptides 11 conc.); type: cell-based
T1 sequence (Q13324 1-411): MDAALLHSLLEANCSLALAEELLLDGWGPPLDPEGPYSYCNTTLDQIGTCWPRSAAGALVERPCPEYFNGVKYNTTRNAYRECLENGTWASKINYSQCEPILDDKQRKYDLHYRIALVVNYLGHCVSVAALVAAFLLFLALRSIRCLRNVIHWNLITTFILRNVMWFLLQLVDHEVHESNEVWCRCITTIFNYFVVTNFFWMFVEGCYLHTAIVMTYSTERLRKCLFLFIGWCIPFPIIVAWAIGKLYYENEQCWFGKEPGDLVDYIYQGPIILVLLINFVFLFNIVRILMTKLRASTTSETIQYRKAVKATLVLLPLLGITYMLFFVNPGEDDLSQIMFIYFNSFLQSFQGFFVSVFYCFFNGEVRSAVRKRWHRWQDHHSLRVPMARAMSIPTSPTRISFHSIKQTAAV
In short: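 CHO-K1 cells stably expressing human CRHR2 were thawed from frozen stocks immediately before use and assayed in suspension with agonist peptides. cAMP was measured by time-resolved FRET in a competitive immunoassay between cryptate-labelled anti-cAMP antibody and d2-labelled cAMP. EC50 values came from nonlinear regression, sigmoid variable-slope fit.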

[2] = biological target: T2, hCRHR1 (Homo sapiens, UniProt P34998); assay: HTRF cAMP assay, determination of hCRHR1 potency (peptide libraries 5 conc., purified peptides 11 conc.); type: cell-based
T2 sequence (P34998 24-415): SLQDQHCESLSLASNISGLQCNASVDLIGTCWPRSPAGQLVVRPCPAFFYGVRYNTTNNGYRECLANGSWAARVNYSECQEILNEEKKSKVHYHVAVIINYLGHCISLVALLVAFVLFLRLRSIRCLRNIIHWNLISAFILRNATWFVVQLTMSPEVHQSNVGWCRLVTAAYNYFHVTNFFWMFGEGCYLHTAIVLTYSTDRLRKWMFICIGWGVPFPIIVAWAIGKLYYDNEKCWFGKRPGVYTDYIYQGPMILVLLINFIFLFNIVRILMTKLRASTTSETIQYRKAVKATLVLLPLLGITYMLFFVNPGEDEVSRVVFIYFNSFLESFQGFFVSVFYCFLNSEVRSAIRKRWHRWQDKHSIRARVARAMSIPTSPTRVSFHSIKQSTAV
In short: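 CHO-K1 cells stably expressing human CRHR1, thawed from frozen stocks just before use, were stimulated in suspension with agonist peptides. cAMP was measured by HTRF competitive immunoassay (cryptate anti-cAMP antibody vs d2-cAMP).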

[3] = library peptides, matched molecular pairs L vs Nle in position X^38, read-out: Potency hCRHR2 pEC50 (converted)
[4] = library peptides, matched molecular pairs L vs Nle in position X^38, read-out: Potency hCRHR1 pEC50 (converted)
[5] = Table 3, matched molecular pairs X^38 L vs Nle, peptide library of Example 4, read-out: hCRHR2 pEC50 (converted)
[6] = Table 3, matched molecular pairs X^38 L vs Nle, peptide library of Example 4, read-out: hCRHR1 pEC50 (converted)

Row | SMILES | EC50 [1, 3] | EC50 [2, 4] | EC50 [1, 5] | EC50 [2, 6] | other results
1 | CCCC[C@H](NC(=O)[C@@H](NC(=O)[C@H](CCC(=O)O)NC(=O)[C@H](C)NC(=O)[C@H](CC(N)=O)NC(=O)[C@@H](NC(=O)[C@H](CCCCNC(=O)COCCOCCNC(=O)COCCOCCNC(=O)CC[C@H](NC(=O)CC[C@H](NC(=O)CCCCCCCCCCCCCCCCCCC(=O)O)C(=O)O)C(=O)O)NC(=O)[C@H](C)NC(=O)[C@H](CCC(=O)O)NC(=O)[C@H](CCC(=O)O)NC(=O)[C@H](CCCNC(=N)N)NC(=O)[C@H](C)NC(=O)[C@H](C)NC(=O)[C@H](CCCNC(=N)N)NC(=O)[C@H](C)NC(=O)[C@H](CCCNC(=N)N)NC(=O)[C@H](C)NC(=O)[C@H](CCC(N)=O)NC(=O)[C@H](CCC(=O)O)NC(=O)[C@H](CC(C)C)NC(=O)[C@H](CC(C)C)NC(=O)[C@@H](NC(=O)[C@H](CCC(N)=O)NC(=O)[C@H](CC(C)C)NC(=O)[C@H](CC(C)C)NC(=O)CNC(=O)[C@@H](NC(=O)[C@@H]1CCCN1C(=O)[C@@H](NC(=O)[C@H](CC(=O)O)NC(=O)[C@H](CC(C)C)NC(=O)[C@H](CO)NC(=O)[C@H](CC(C)C)NC(=O)[C@@H](NC(=O)[C@@H](N)[C@@H](C)CC)C(C)C)C(C)C)[C@@H](C)CC)[C@@H](C)CC)[C@@H](C)O)[C@@H](C)CC)C(=O)N[C@@H](C)C(=O)N[C@@H](CCC(=O)O)C(=O)N[C@H](C(N)=O)[C@@H](C)CC [compound 75] (H-IVLSLDVPIGLLQILLEQARARAAREEAK([AEEA-AEEA-γGlu-γGlu-C20 diacid])TNAEI[Nle]AEI-NH2) | 0.794 nM | 158000 nM |  |  | 
2 | CCCC[C@H](NC(=O)[C@@H](NC(=O)[C@H](CCC(=O)O)NC(=O)[C@H](C)NC(=O)[C@H](CC(N)=O)NC(=O)C(C)(C)NC(=O)[C@H](CCCCNC(=O)COCCOCCNC(=O)COCCOCCNC(=O)CC[C@H](NC(=O)CC[C@H](NC(=O)CCCCCCCCCCCCCCCCCCC(=O)O)C(=O)O)C(=O)O)NC(=O)[C@H](C)NC(=O)[C@H](CCC(N)=O)NC(=O)[C@H](CCC(=O)O)NC(=O)[C@H](CCCNC(=N)N)NC(=O)[C@H](C)NC(=O)[C@H](C)NC(=O)[C@H](CCCNC(=N)N)NC(=O)[C@H](C)NC(=O)[C@H](CCCNC(=N)N)NC(=O)[C@H](C)NC(=O)[C@H](CCC(N)=O)NC(=O)[C@H](Cc1ccccc1)NC(=O)[C@H](CC(C)C)NC(=O)[C@H](CC(C)C)NC(=O)[C@@H](NC(=O)[C@H](CCC(N)=O)NC(=O)[C@H](CC(C)C)NC(=O)[C@H](CC(C)C)NC(=O)CNC(=O)[C@@H](NC(=O)[C@@H]1CCCN1C(=O)[C@@H](NC(=O)[C@H](CC(=O)O)NC(=O)[C@H](CC(C)C)NC(=O)[C@H](CO)NC(=O)[C@H](CC(C)C)NC(=O)[C@@H](NC(=O)[C@@H](NC)[C@@H](C)CC)C(C)C)C(C)C)[C@@H](C)CC)[C@@H](C)CC)[C@@H](C)CC)C(=O)N[C@@H](C)C(=O)N[C@@H](CCC(=O)O)C(=O)N[C@H](C(N)=O)C(C)C [compound 128] (H-[NMeI]VLSLDVPIGLLQILLFQARARAAREQAK([AEEA-AEEA-γGlu-γGlu-C20 diacid])[Aib]NAEI[Nle]AEV-NH2) |  |  |  |  | EC50 ([1]; Table 4, library peptides having X^38 = Nle, read-out: hCRHR2 pEC50 (converted)): 0.00501 nM; EC50 ([2]; Table 4, library peptides having X^38 = Nle, read-out: hCRHR1 pEC50 (converted)): 100000 nM
3 | CCCC[C@H](NC(=O)[C@@H](NC(=O)[C@H](CCC(=O)O)NC(=O)[C@H](C)NC(=O)[C@H](CC(N)=O)NC(=O)[C@@H](NC(=O)[C@H](CCCCNC(=O)COCCOCCNC(=O)COCCOCCNC(=O)CC[C@H](NC(=O)CC[C@H](NC(=O)CCCCCCCCCCCCCCCCCCC(=O)O)C(=O)O)C(=O)O)NC(=O)[C@H](C)NC(=O)[C@H](CCC(=O)O)NC(=O)[C@H](CCC(=O)O)NC(=O)[C@H](CCCNC(=N)N)NC(=O)[C@H](CCC(N)=O)NC(=O)[C@H](C)NC(=O)[C@H](CCCNC(=N)N)NC(=O)[C@H](C)NC(=O)[C@H](CCCNC(=N)N)NC(=O)[C@H](C)NC(=O)[C@H](CCC(N)=O)NC(=O)[C@H](CCC(=O)O)NC(=O)[C@H](CC(C)C)NC(=O)[C@H](CC(C)C)NC(=O)[C@@H](NC(=O)[C@H](CCC(N)=O)NC(=O)[C@H](CC(C)C)NC(=O)[C@H](CC(C)C)NC(=O)CNC(=O)[C@@H](NC(=O)[C@@H]1CCCN1C(=O)[C@@H](NC(=O)[C@H](CC(=O)O)NC(=O)[C@H](CC(C)C)NC(=O)[C@H](CO)NC(=O)[C@H](CC(C)C)NC(=O)[C@@H](NC(=O)[C@@H](N)[C@@H](C)CC)C(C)C)C(C)C)[C@@H](C)CC)[C@@H](C)CC)[C@@H](C)O)[C@@H](C)CC)C(=O)N[C@@H](C)C(=O)N[C@@H](CCC(=O)O)C(=O)N[C@H](C(N)=O)C(C)C [SEQ ID NO: 34] (H-IVLSLDVPIGLLQILLEQARARAQREEAK([AEEA-AEEA-γGlu-γGlu-C20 diacid])TNAEI[Nle]AEV-NH2) |  |  | 0.251 nM | 100000 nM | 

Further lines, with some results ahead:

Row | EC50 [1, 3] | EC50 [2, 4] | EC50 [1, 5] | EC50 [2, 6] | SMILES | other results
4 |  |  | 0.316 nM | 25.1 nM | CCCC[C@H](NC(=O)[C@@H](NC(=O)[C@H](CCC(=O)O)NC(=O)[C@H](C)NC(=O)[C@H](CC(N)=O)NC(=O)[C@@H](NC(=O)[C@H](CCCCNC(=O)COCCOCCNC(=O)COCCOCCNC(=O)CC[C@H](NC(=O)CC[C@H](NC(=O)CCCCCCCCCCCCCCCCCCC(=O)O)C(=O)O)C(=O)O)NC(=O)[C@H](C)NC(=O)[C@H](CCC(N)=O)NC(=O)[C@H](CCC(=O)O)NC(=O)[C@H](CCCNC(=N)N)NC(=O)[C@H](CCC(N)=O)NC(=O)[C@H](C)NC(=O)[C@H](CCC(N)=O)NC(=O)[C@H](C)NC(=O)[C@H](CCCNC(=N)N)NC(=O)[C@H](C)NC(=O)[C@H](CCC(N)=O)NC(=O)[C@H](CCC(=O)O)NC(=O)[C@H](CC(C)C)NC(=O)[C@H](CC(C)C)NC(=O)[C@@H](NC(=O)[C@H](CCC(N)=O)NC(=O)[C@H](CC(C)C)NC(=O)[C@H](CC(C)C)NC(=O)CNC(=O)[C@@H](NC(=O)[C@@H]1CCCN1C(=O)[C@@H](NC(=O)[C@H](CC(=O)O)NC(=O)[C@H](CC(C)C)NC(=O)[C@H](CO)NC(=O)[C@H](CC(C)C)NC(=O)[C@@H](NC(=O)[C@@H](N)[C@@H](C)CC)C(C)C)C(C)C)[C@@H](C)CC)[C@@H](C)CC)[C@@H](C)O)[C@@H](C)CC)C(=O)N[C@@H](C)C(=O)N[C@@H](CCC(=O)O)C(=O)N[C@H](C(N)=O)C(C)C [SEQ ID NO: 32] (H-IVLSLDVPIGLLQILLEQARAQAQREQAK([AEEA-AEEA-γGlu-γGlu-C20 diacid])TNAEI[Nle]AEV-NH2) | 
5 | 2 nM | 158000 nM |  |  | CC[C@H](C)[C@H](N)C(=O)N[C@H](C(=O)N[C@@H](CC(C)C)C(=O)N[C@@H](CO)C(=O)N[C@@H](CC(C)C)C(=O)N[C@@H](CC(=O)O)C(=O)N[C@H](C(=O)N1CCC[C@H]1C(=O)N[C@H](C(=O)NCC(=O)N[C@@H](CC(C)C)C(=O)N[C@@H](CC(C)C)C(=O)N[C@@H](CCC(N)=O)C(=O)N[C@H](C(=O)N[C@@H](CC(C)C)C(=O)N[C@@H](CC(C)C)C(=O)N[C@@H](CCC(=O)O)C(=O)N[C@@H](CCC(N)=O)C(=O)N[C@@H](C)C(=O)N[C@@H](CCCNC(=N)N)C(=O)N[C@@H](C)C(=O)N[C@@H](CCCNC(=N)N)C(=O)N[C@@H](C)C(=O)N[C@@H](C)C(=O)N[C@@H](CCCNC(=N)N)C(=O)N[C@@H](CCC(=O)O)C(=O)N[C@@H](CCC(=O)O)C(=O)N[C@@H](C)C(=O)N[C@@H](CCCCNC(=O)COCCOCCNC(=O)COCCOCCNC(=O)CC[C@H](NC(=O)CC[C@H](NC(=O)CCCCCCCCCCCCCCCCCCC(=O)O)C(=O)O)C(=O)O)C(=O)N[C@H](C(=O)N[C@@H](CC(N)=O)C(=O)N[C@@H](C)C(=O)N[C@@H](CCC(=O)O)C(=O)N[C@H](C(=O)N[C@@H](CC(C)C)C(=O)N[C@@H](C)C(=O)N[C@@H](CCC(=O)O)C(=O)N[C@H](C(N)=O)[C@@H](C)CC)[C@@H](C)CC)[C@@H](C)O)[C@@H](C)CC)[C@@H](C)CC)C(C)C)C(C)C [compound 74] (H-IVLSLDVPIGLLQILLEQARARAAREEAK([AEEA-AEEA-γGlu-γGlu-C20 diacid])TNAEILAEI-NH2) | 
